Our source for the melting point values is a melting point compilation (Tetko et al.; mined from patent text by program, amines drawn as free bases though some values may be those of a salt).

With `NS(=O)(=O)c1ncccc1SCCCF`, the melting point is 85 to 86 °C.

`CS(=O)(=O)OCCCCCCc1ccc(OCc2coc(/C=C/c3ccccc3)n2)cc1` returned a melting point of 88 to 89 °C.

Consider `N#Cc1ccc(C(=O)N2CCc3[nH]c4c(cnc5cc(Cl)ccc54)c3C2)cc1`, for which the melting point was above 300 °C.

As to `O=C(O)c1cn(Cc2cnsn2)c2nc(Cl)c(F)cc2c1=O`, the melting point was 231 to 232 °C.

Compound `Cc1cccc(C2=CCN(c3ccc(Cl)nn3)CC2)c1` registered a melting point of 122 °C.

Consider `CCOC(=O)c1[nH]c(C)cc1N`, for which the melting point is 85 to 87 °C.

With `CC(C)N(CCOc1ccc2oc3ccc(OCCN(C(C)C)C(C)C)cc3c2c1)C(C)C`, the melting point lay in the range of 47 to 49 °C.

As for `Nc1ccc(Oc2ccc(C34CC5CC(C3)CC(c3ccc(Oc6ccc(N)c(O)c6)cc3)(C5)C4)cc2)cc1O`, the melting point was in the range of 166 to 169 °C.

In the case of `CCOC(=S)c1sc(Cl)nc1C(F)(F)F`, the melting point lay within 28 to 32 °C.

In turn, `CCOC(=O)/C=C/c1c(-c2ccccc2)c2c3ccccc3cnn2c1C(C)C` displayed a melting point of 158 to 159 °C.

In turn, `CC(C)Oc1cc(/C=C/S(=O)(=O)NC(=O)OC(C)(C)C)n(Cc2ccc(Cl)cc2Cl)n1` displayed a melting point of 152 to 153 °C.

`CCCCCC(CC(=O)Nc1cc(C(N)=O)ccc1C(C)(C)C)c1ccc(OCCCOC)cc1OC` (centres undefined): the melting point was in the range of 65 to 67 °C.

As for `CCOC(=O)C1CCc2c(sc3nc(CN4C(=O)COC4=O)c(Cl)c(-c4ccc(OC)cc4)c23)C1` (centres undefined), the melting point was 118 to 119 °C.

In the case of `O=C(O)Cc1cc([N+](=O)[O-])ccc1Sc1ccccc1`, the melting point fell in the range of 138 to 140 °C.

`CCOC(=O)c1ccc(OCCc2c(CCNS(=O)(=O)Cc3ccc(Cl)c(Cl)c3)n(C(c3ccccc3)c3ccccc3)c3ccc(Cl)cc23)cc1F` had a melting point of 83 to 85 °C.

Turning to `CCN(CC)C(=O)O[C@@H]1[C@@H](c2ccccc2)Nc2c(ccn3c(C)c(C)nc23)[C@H]1OC`, the melting point is 97 to 98 °C.

As to `COc1cc(NC(=N)Nc2ccc3c4c(cccc24)CC3)cc2ccccc12`, the melting point was 191 to 192 °C.

`Cc1nc(-c2c(Cl)cc(C(F)(F)F)cc2Cl)[nH]c1[N+](=O)[O-]` showed a melting point of 316 to 318 °C.

Compound `CCOC(=O)Oc1cc2occ(C=O)c(=O)c2cc1OC(=O)OCC` had a melting point of 101 to 102 °C.

Compound `CCCCCCC1C(=O)CCC1C(=O)O` (centres undefined) showed a melting point of 73 to 74 °C.

The compound `CCOC(=O)C(=O)Nc1c(C)c(C)c2c(c1C)C(c1ccc(C(C)C)cc1)CO2` (centres undefined) had a melting point of 83 to 84 °C.

With `COc1cc2c(cc1OCc1ccccc1)C(C#N)C2` (centres undefined), the melting point came to 85 °C.

For the compound `COc1ccc(C2OCC(COC(C(F)(F)F)(C(F)(F)F)C(F)(F)F)(COC(C(F)(F)F)(C(F)(F)F)C(F)(F)F)CO2)cc1`, the melting point lay within 89 to 90 °C.

For the compound `COc1ccc(CCN2CCC(N3CCc4ccc(CNC(C)=O)cc43)CC2)cc1`, the melting point is 151 to 152 °C.

`CC(C)(C)OC(=O)N[C@H](Cc1ccc(Cl)c(Cl)c1)C(=O)N1CCC[C@H]1C(=O)NCC1CCc2n[nH]cc2C1` (some centres undefined): the melting point is 100 to 103 °C.

For the compound `O=C1c2c(O)cccc2C(=CCc2ccccc2)c2cccc(O)c21`, the melting point fell in the range of 128 to 129 °C.

`N#Cc1ccc(-c2oncc2CCCO)cc1` showed a melting point of 82 to 83 °C.

`O=C1NCCc2sc3ccccc3c21` gave a melting point of 143 to 144 °C.

With `CCc1cc(-c2ccc(Cl)cc2)nc2c(C(=O)O)cnn12`, the melting point is 227 °C.

`CSCCNC(=O)c1cccc(-c2ccc3c(c2)C(Oc2ccc(Cl)cc2Cl)CC3)c1` (centres undefined): the melting point lay within 141 to 142 °C.

Regarding `Cc1cc(N2CCC[C@H]2COc2ccc(CC3SC(=O)NC3=O)cc2)nc2ccccc12` (some centres undefined), the melting point lay in the range of 95 to 97 °C.

`Cc1ccnc(C(=O)c2[nH]c3ccc(Cl)cc3c2CC(=O)O)c1C`: the melting point lay within 236 to 237 °C.

In the case of `Cc1cc(C)cc(-c2cc(C)cn2-c2ccc(S(N)(=O)=O)cc2)c1`, the melting point fell in the range of 163 to 166 °C.

`O=C(CCCCCc1ccc(Cl)cc1)Nc1ccc(C(=O)O)cc1` gave a melting point of 218 to 220 °C.

In turn, `CCCCCNc1n[nH]c(C)c1C(=O)OCC` had a melting point of 117 to 119 °C.

For the compound `CS(=O)(=O)Nc1ccc([N+](=O)[O-])cc1C(=O)C1CCCCC1`, the melting point lay within 178 to 179 °C.

Turning to `N#Cc1cnn(Cc2ccccc2)c1`, the melting point was 61 to 63 °C.

Compound `O=C(NC1CCCCC1)c1ccc(CO)cc1` showed a melting point of 185 °C.

The compound `O=C1CCC(N2C(=O)c3cccc(OCc4nc(CN5CCOCC5)cs4)c3C2=O)C(=O)N1` (centres undefined) showed a melting point of 210 to 212 °C.

Compound `CCCCCCCCCCCCNC(=O)c1cc(Br)c(OCCNC(N)=O)c(-c2cccc(C(F)(F)F)c2)c1` came in with a melting point of 122 to 125 °C.

Compound `O=C(Nc1cccc2c1C(=O)c1c-2n[nH]c1-c1ccc(N2CCC(N3CCCCC3)CC2)cc1)NN1CCOCC1` registered a melting point of 233 °C.

For `CC[C@@H](CO)Nc1nc(-c2ccc(Br)cc2)cs1`, the melting point was in the range of 91 to 93 °C.

For `CCOc1cc(-c2nnc3c4ccccc4c(OCc4cn(C)cn4)nn23)no1`, the melting point fell in the range of 189 to 190 °C.

In the case of `CCCCCCCCC(SCCCCCC)C(=O)Nc1c(F)ccc2ncccc12` (centres undefined), the melting point was 74 to 75 °C.

`O=C1c2ccccc2C(=O)N1CCSCc1ccco1` displayed a melting point of 59 to 61 °C.

`O=[N+]([O-])c1cc2c(Nc3ccc(F)c(Cl)c3)ncnc2cc1O[C@@H]1CCOC1` showed a melting point of 244 °C.

In turn, `Cc1cccc(C2=CCN(CCCn3c(=O)[nH]c4c(Cl)cccc4c3=O)CC2)c1` displayed a melting point of 214 to 216 °C.

In turn, `O=C1OCCC1Oc1ccc(C(F)(F)F)cc1[N+](=O)[O-]` (centres undefined) registered a melting point of 128 to 129 °C.

Compound `O=C1c2ccccc2C(=O)N1c1c(F)cc(Cl)c2c1CCCO2` displayed a melting point of 198 to 200 °C.

`CCCN(CCC)Cc1nc(-c2ncn3c2CN(C)C(=O)c2c(Br)cccc2-3)no1` showed a melting point of 135 to 145 °C.

Turning to `COc1cc(N2CCN(C[C@H](C)O)CC2)ccc1Nc1ncc2ccc(-c3ccccc3OC)n2n1`, the melting point was 76 to 85 °C.

`Cc1ccc(NC(=O)c2ccc(CBr)c(C(F)(F)F)c2)cc1Br` yielded a melting point of 153 to 154 °C.

As for `COCN(C(=O)Cc1ccc(Cl)cc1)C(c1cncnc1C(F)(F)F)C(C)C` (centres undefined), the melting point was 142 to 145 °C.

`CC12CC(N3CCC4(CC3)OCCO4)C(O)CC1CCC1C2CCC2(C)C(O)C(N3CCC4(CC3)OCCO4)CC12` (centres undefined) showed a melting point of 180 to 182 °C.

Take `NC(=O)N(O)C/C=C/c1cccc(C2=NOC(c3ccc(F)cc3)C2)c1` (centres undefined): the melting point fell in the range of 159 to 160 °C.

Consider `CN1CCN(C(=O)c2ccc(-c3cnc4c(c3)N(Cc3cc(F)c(F)cc3F)C(=O)CN4)cc2)CC1`, for which the melting point came out at 238 °C.

With `NNC(=O)c1ccc(C(=O)O)cc1`, the melting point lay in the range of 235 to 236 °C.

For the compound `COc1cc2nc3c(c(-c4cc(OC)c(O)c(OC)c4)c2cc1OC)C(=O)OC3`, the melting point fell in the range of 247 to 248 °C.

`C#CCn1ccc(CO)c1C(F)(F)F` displayed a melting point of 63 °C.

Regarding `CCOCc1cc2ccc(OC)cc2o/c1=N\c1ccccc1`, the melting point lay within 107 to 108 °C.

With `Cc1nnc2ccc(-c3cccc(N4CCCCC4=O)c3)nn12`, the melting point was 204 to 207 °C.

For `Cc1nc2cccc(CCN3CCC(c4noc5cc(F)ccc45)CC3)c2c(=O)[nH]1`, the melting point lay within 164 to 165 °C.

As for `Nc1ccc(C#Cc2ccc(C#Cc3ccccc3)cc2[N+](=O)[O-])cc1`, the melting point was 166 to 168 °C.

In turn, `CC1OC(n2cnc3c(S(N)(=O)=O)nc(N)nc32)C(O)C1O` (centres undefined) yielded a melting point above 90 °C.

`CCn1ccc(Nc2cc(Cl)nn(C)c2=O)n1` displayed a melting point of 173 to 175 °C.

Take `CC(O)(c1ccccc1)c1ccncc1` (centres undefined): the melting point was in the range of 141 to 144 °C.

`COc1ccc(SC2SC(=O)NC2=O)cc1` (centres undefined) displayed a melting point of 89 to 91 °C.

`Nc1cccc(-c2ccc(CCN3CCC4(CCCC4)CC3)cc2)n1` showed a melting point of 130 to 132 °C.

The compound `CCOC(=O)c1c(C(F)F)nc(C(F)(F)F)c(C(=O)OC)c1NC(C)C` gave a melting point of 37 to 39 °C.

`CCOC(=O)[C@@H](O)CCNC(=O)[C@@H](CSC(C)=O)Cc1ccccc1C` had a melting point of 48 to 52 °C.

As for `Cc1cc(-c2cccc(NC(=O)N[C@@H]3c4cc(C#N)ccc4OC(C)(C)[C@H]3O)c2)n(C)n1`, the melting point fell in the range of 142 to 152 °C.

The compound `C#Cc1ncn2c1CN(C)C(=O)c1c(Cl)cccc1-2` gave a melting point of 194 to 195 °C.

On to `N#CSc1nc(I)ncc1Br`, for which the melting point lay in the range of 199 to 202 °C.

Compound `NC(=O)CCc1ccncc1` showed a melting point of 164 to 166 °C.

`COc1cc(OC)nc(OC(C(=O)O)C(C)(C)CO)n1` (centres undefined) yielded a melting point of 104 to 110 °C.

As to `Cc1occc1S(=O)(=O)C(C)(Cc1ccc(OCCN2CCCCC2)cc1)C(=O)NO` (centres undefined), the melting point was 115 to 117 °C.

`O=C(C=C1CCN(CCc2ccc(F)cc2)CC1)NCc1ccc(F)c(F)c1` gave a melting point of 117 to 120 °C.

As for `CC(C)(C#N)c1cc(CSc2ccc(O)c(Cl)c2)cc(Cn2cncn2)c1`, the melting point is 131 °C.

Consider `O=C1CCc2cc(C(=O)[C@H]3CC[C@H]3C(=O)O)ccc2N1` (relative stereo), for which the melting point was 155 to 158 °C.

In the case of `COc1ccc(C2(C)Cc3cc(O)c(Cl)c(Cl)c3C2=O)cc1` (centres undefined), the melting point lay in the range of 149 to 156 °C.

As for `CC(=O)OC(C)c1ccc2cc(OCc3ccccc3)ccc2c1` (centres undefined), the melting point fell in the range of 97 to 98 °C.

Consider `c1ccc(CSc2nnn[nH]2)cc1`, for which the melting point is 98 to 100 °C.

In the case of `N#Cc1cccc(-n2c(=O)c(N3CCCCCC3)cc3cccnc32)c1`, the melting point was in the range of 215 to 217 °C.

Compound `CC(C)CC(OC(=O)c1ccncc1)C(=O)OCc1ccccc1` (racemic) yielded a melting point of 49 to 50 °C.

`COc1cc2c(cc1-c1nocc1-c1ccccc1C#N)C(C)(C)CCC2(C)C` yielded a melting point of 202 to 203 °C.

In turn, `COc1nnc(C)c(-c2ccc(SC)cn2)c1-c1ncc(Cl)cc1Cl` gave a melting point of 147 to 149 °C.

Take `COc1cc(NC(=O)C(C)(C)C)ccc1C(=O)N(C)C`: the melting point fell in the range of 143 to 144 °C.

In turn, `CCCc1c(OCCCCCCc2cc(O)c(O)cc2F)ccc(C(=O)O)c1O` had a melting point of 110 to 111 °C.

Take `Cc1cc(C)n2nc(Sc3ccccc3Cl)nc2n1`: the melting point came out at 143 °C.
